# Experimental data taken from ChEMBL document CHEMBL1127065, “Nucleoside conjugates. 13. Synthesis and antitumor activity of 1-beta-D-arabinofuranosylcytosine conjugates of thioether lipids with improved water solubility” (J Med Chem, 1993).
# Several values for one entry are separate records, joined by “and”; a condition that tells them apart may be missing. Equal entries are not always repeated.
# Key:
# Mus musculus [1] = assay: Median T/C calculated based on survivors at 150 mg/kg (150 umol) per day against Ip-implanted L1210 lymphoid leukemia mice; assay type: functional
# Mus musculus [2] = assay: Percent increase in life span at 150 mg/kg (150 umol) per day; assay type: functional
# Mus musculus [3] = assay: Percent increase in life span at 400 mg/kg (400 umol) per day; assay type: functional
# Mus musculus [4] = assay: Number of survivors in mice bearing ip-implanted L1210 lymphoid leukemia after 45 day; assay type: functional
# Mus musculus [5] = assay: Median T/C calculated based on survivors at 400 mg/kg (400 umol) per day against Ip-implanted L1210 lymphoid leukemia mice; assay type: functional
# [6] = Water solubility was determined by UV absorption at 273 nm; assay type: ADME
# Mus musculus [7] = assay: Median T/C calculated based on survivors at 200 mg/kg (218 umol) per day; assay type: functional
# Mus musculus [8] = assay: Percent increase in life span at 200 mg/kg (218 umol) per day; assay type: functional
# Mus musculus [9] = assay: Median T/C calculated based on survivors at 300 mg/kg (328 umol) per day against Ip-implanted L1210 lymphoid leukemia mice; assay type: functional
# Mus musculus [10] = assay: Percent increase in life span at 300 mg/kg (328 umol) per day; assay type: functional
# Mus musculus [11] = assay: Percent increase in life span at 300 mg/kg (318 umol) per day; assay type: functional
# Mus musculus [12] = assay: Median T/C calculated based on survivors at 300 mg/kg (318 umol) per day against Ip-implanted L1210 lymphoid leukemia mice; assay type: functional
# Mus musculus [13] = assay: Percent increase in life span at 300 mg/kg (292 umol) per day; assay type: functional
# Mus musculus [14] = assay: Number of survivors in mice bearing ip-implanted L1210 lymphoid leukemia after 45 day against Ip-implanted L1210 lymphoid leukemia mice; assay type: functional
# Mus musculus [15] = assay: Change in weight in mice bearing ip-implanted L1210 lymphoid leukemia on day 8 at 300 mg/kg or 292 umol/kg per day; assay type: functional
# Mus musculus [16] = assay: Median T/C calculated based on survivors at 300 mg/kg (292 umol) per day against Ip-implanted L1210 lymphoid leukemia mice; assay type: functional
# Mus musculus [17] = assay: Median T/C calculated based on survivors at 150 mg/kg (146 umol) per day against Ip-implanted L1210 lymphoid leukemia mice; assay type: functional
# Mus musculus [18] = assay: Median T/C calculated based on survivors at 200 mg/kg (822 umol) per day against Ip-implanted L1210 lymphoid leukemia mice; assay type: functional
# Mus musculus [19] = assay: Percent increase in life span at 200 mg/kg (822 umol) per day; assay type: functional
# Mus musculus [20] = assay: Median T/C calculated based on survivors at 100 mg/kg (411 umol) per day against Ip-implanted L1210 lymphoid leukemia mice; assay type: functional
# Mus musculus [21] = assay: Change in weight in mice bearing ip-implanted L1210 lymphoid leukemia on day 8 at 200 mg/kg or 822 umol/kg per day; assay type: functional
# Mus musculus [22] = assay: Percent increase in life span at 71 mg/kg (292 umol) per day; assay type: functional
# Mus musculus [23] = assay: Change in weight in mice bearing ip-implanted L1210 lymphoid leukemia on day 8 at 100 mg/kg or 411 umol/kg per day; assay type: functional
# Mus musculus [24] = assay: Median T/C calculated based on survivors at 71 mg/kg (292 umol) per day against Ip-implanted L1210 lymphoid leukemia mice; assay type: functional
# Mus musculus [25] = assay: Change in weight in mice bearing ip-implanted L1210 lymphoid leukemia on day 8 at 71 mg/kg or 292 umol/kg per day; assay type: functional
# Mus musculus [26] = assay: Percent increase in life span at 100 mg/kg (411 umol) per day; assay type: functional
# Mus musculus [27] = assay: Percent increase in life span at 400 mg/kg (437 umol) per day; assay type: functional
# Mus musculus [28] = assay: Percent increase in life span at 150 mg/kg (164 umol) per day; assay type: functional
# Mus musculus [29] = assay: Median T/C calculated based on survivors at 150 mg/kg (164 umol) per day; assay type: functional
# Mus musculus [30] = assay: Median T/C calculated based on survivors at 400 mg/kg (437 umol) per day against Ip-implanted L1210 lymphoid leukemia mice; assay type: functional
structure (smiles),measurement,setting,value
CCCCCCCCCCCCCCCCCCSCC(COP(=O)([O-])OP(=O)([O-])OC[C@H]1OC(n2ccc(N)nc2=O)[C@@H](O)[C@@H]1O)OC(=O)CCCCCCCCCCCCC.[Na+].[Na+] (stereo partly drawn),Median T/C,Mus musculus [1],39.5
same,ILS at 150 mg/kg,Mus musculus [2],> 464%
same,ILS at 400 mg/kg,Mus musculus [3],213%
same,Survivors,Mus musculus [4],1 and 3
same,Median T/C,Mus musculus [5],25
same,solubility,[6],> 62 mM
CCCCCCCCCCCCCC(=O)OC(COP(=O)([O-])OP(=O)([O-])OC[C@H]1OC(n2ccc(N)nc2=O)[C@@H](O)[C@@H]1O)CSCCCCCCCCCCCC.[Na+].[Na+] (stereo partly drawn),Median T/C,Mus musculus [7],>45
same,ILS at 200 mg/kg,Mus musculus [8],463%
same,Median T/C,Mus musculus [9],14.5
same,ILS at 300 mg/kg,Mus musculus [10],81%
same,solubility,[6],> 68 mM
CCCCCCCCCCCCCCCCSCC(COP(=O)([O-])OP(=O)([O-])OC[C@H]1OC(n2ccc(N)nc2=O)[C@@H](O)[C@@H]1O)OC(=O)CCCCCCCCCCC.[Na+].[Na+] (stereo partly drawn),ILS at 300 mg/kg,Mus musculus [11],178%
same,Median T/C,Mus musculus [12],19.5
same,Survivors,Mus musculus [4],2
same,solubility,[6],> 64 mM
CCCCCCCCCCCCCCCCCCSCC(COP(=O)([O-])OP(=O)([O-])OC[C@H]1OC(n2ccc(N)nc2=O)[C@@H](O)[C@@H]1O)OC(=O)CCCCCCCCCCCCCCC.[Na+].[Na+] (stereo partly drawn) [CYTOROS],ILS,Mus musculus [13],>543% and >293%
same,Survivors,Mus musculus [14],4
same,Weight change,Mus musculus [15],-2.4 g mouse-1
same,Survivors,Mus musculus [4],1
same,solubility,[6],0.2 mM
same,Median T/C,Mus musculus [16],>45
same,Median T/C,Mus musculus [17],27.5
Nc1ccn([C@@H]2O[C@H](CO)[C@@H](O)[C@@H]2O)c(=O)n1 [CYTARABINE],Median T/C,Mus musculus [18],14
same,ILS at 200 mg/kg,Mus musculus [19],100%
same,Median T/C,Mus musculus [20],16
same,Weight change,Mus musculus [21],-6.1 g mouse-1
same,ILS at 71 mg/kg,Mus musculus [22],23%
same,Weight change,Mus musculus [23],-3.1 g mouse-1
same,Median T/C,Mus musculus [24],8
same,Survivors,Mus musculus [4],0
same,Weight change,Mus musculus [25],-3.8 g mouse-1
same,ILS at 100 mg/kg,Mus musculus [26],129%
CCCCCCCCCCCCCCCC(=O)OC(COP(=O)([O-])OP(=O)([O-])OC[C@H]1OC(n2ccc(N)nc2=O)[C@@H](O)[C@@H]1O)CSCCCCCCCCCC.[Na+].[Na+] (stereo partly drawn),ILS at 400 mg/kg,Mus musculus [27],114%
same,ILS at 150 mg/kg,Mus musculus [28],200%
same,Median T/C,Mus musculus [29],21
same,Median T/C,Mus musculus [30],15
same,Survivors,Mus musculus [4],0
same,solubility,[6],> 58 mM
